Earlier results as cited in paper PMC3346673 (Toxicological and environmental chemistry, 2012).

How the values were obtained:
[1] = temporarily ref Risher & Amier, 2005; cited from earlier work
[2] = administered by sc injection; cited from earlier work

Row | Compound | reduction of blood mercury levels [1] | predicted LD50 [2] [mg HgCl2 kg^−1]
1 | O=S(=O)(O)CC(S)CS (stereo not drawn) [DMPS, dimercaptopropanesulfonate] | about 20% | 
2 | O=C(O)C(S)C(S)C(=O)O (stereo not drawn) [DMSA, dimercaptosuccinic acid] | about 20% | 
3 | [Cl][Hg][Cl] [HgCl2, mercury chloride] |  | 14
